In patent US11414436B2, “Non-coordinating anion type activators containing cation having large alkyl groups” (ExxonMobil Chemical Patents Inc., priority 2018, dated 2022):
Values joined by “and” are separate entries in the source; they are usually repeats but may differ in a detail not shown here. Equal values may be shown once.

Legend:
[1] = Solubility studies of the activators (saturated solution in isohexane or methylcyclohexane); format: physicochemical; conditions: methylcyclohexane
[2] = as above; format: physicochemical; conditions: for Solubility limit in i-hexane (mM at 25° C.) / Solubility limit in i-hexane (wt % at 25° C.): isohexane; for Solubility limit in MeCy (mM at 25° C.): methylcyclohexane
Experimental: Solubility Studies of the Activators
Procedure for Solid Activators.
A saturated solution of each of the solid ammonium borate activators was prepared by stirring an excess of the activator with either isohexane or methylcyclohexane solvent for several hours at 25° C. The mixture was then filtered and a known volume of the filtrate was evaporated to dryness in a tared vial. The vial was then weighed to determine the mass of activator that was dissolved in the aliquot. The concentration of the saturated solution is presented in millimoles of activator per liter of solution (mM).
Procedure for Activators that Form Emulsions.
A saturated solution of the activator was prepared by slowly adding the solvent to a pre-weighed amount of the activator. The final volume was determined as the minimum amount of solvent required to convert the emulsion into a homogeneous solution. The concentration of the saturated solution is presented in millimoles of activator per liter of solution (mM). Alternatively, an emulsion of the activator was prepared by adding the solvent to an excess amount of activator. The resulting emulsion was separated from the undissolved solids by decanting the emulsion into a tared vial. Solvent was then added dropwise until the emulsion became homogeneous. The mass of the final solution was measured and then the solvent was evaporated to dryness to obtain the mass of the activator. The concentration of the saturated solution is presented in millimoles of activator per liter of solution (mM).

[3] = RUN B: ethylene-octene polymerization in parallel pressure reactor, activator diluent toluene or methylcyclohexane; conditions: ethylene-octene copolymerization; for activity: Cat 1 (MCN-1); for activity, molecular weight and co-monomer incorporation with methyl cyclohexane versus toluene as activator diluent: FIGS. 2-4
Experimental: RUN B: Polymerization in Parallel Pressure Reactor.
A series of ethylene-octene polymerizations were performed in the parallel pressure reactor according to the procedure described above. […] In a typical experiment an automated syringe was used to introduce into the reactor the following reagents, if utilized, in the following order: isohexane (0.35 mL), an isohexane solution of TNOAL scavenger (0.005 M, 60 μL), additional isohexane (0.35 mL), a toluene solution of the respective polymerization catalyst (150 μL, 0.4 mM, 20 nm [cat]/100 μL [toluene]), additional isohexane (0.35 mL), a toluene or methylcyclohexane solution of the respective activator (150 μL, 0.4 mM, (20 nm [act]/100 μL[ diluent])), then additional isohexane so that the total solvent volume for each run was 5 mL. Catalyst and activator were used in a 1:1 ratio. Each reaction was performed at a specified temperature range between 50 and 120° C., typically 95° C., while applying about 100 psig of ethylene (monomer) gas. Each reaction was allowed to run for about 1 hour (˜3600 seconds) or until approximately 20 psig of ethylene gas uptake was observed, at which point the reactions were quenched with air (˜300 psig). When sufficient polymer yield was attained (e.g., at least ˜10 mg), the polyethylene product was analyzed by Rapid GPC, described below.
In a typical experiment, the anilinium borate activators were combined with toluene or methylcyclohexane as diluent and introduced to the parallel, pressure reactor via syringe. By this mechanism of activator introduction, only well dissolved activators could be delivered to the reactor providing a means to discriminate between the polymerization performance of long chain soluble anilinium borates vs. conventional anilinium borates. Following addition of activator, the catalyst Cat 1 was introduced, via syringe as well-dissolved toluene solution and the polymerization was conducted per the methodology described above.

[4] = Propylene homopolymerization in parallel pressure reactor, MCN-1 with ammonium borate activators; conditions: propylene, MCN-1 = 20 nmol, activator = 20 nmol, isohexane, TNOAL 500 nmol
Source text: Polymerization in Parallel Pressure Reactor
Solvents, polymerization-grade toluene, and isohexane were supplied by ExxonMobil Chemical Company and purified by passing through a series of columns: two 500 cc Oxyclear cylinders in series from Labclear (Oakland, Calif.), followed by two 500 cc columns in series packed with dried 3 Å mole sieves (8-12 mesh; Aldrich Chemical Company), and two 500 cc columns in series packed with dried 5 Å mole sieves (8-12 mesh; Aldrich Chemical Company). 1-octene (C8) and 1-hexene (C6) (98%, Aldrich Chemical Company) were dried by stirring over NaK overnight followed by filtration through basic alumina (Aldrich Chemical Company, Brockman Basic 1).
Solutions of the metal complexes and activators were prepared in a drybox using toluene or methylcyclohexane. Concentrations were typically 0.2 mmol/L. Tri-n-octylaluminum (TNOAL, neat, AkzoNobel) was typically used as a scavenger. Concentration of the TNOAL solution in toluene ranged from 0.5 to 2.0 mmol/L.
Polymerizations were carried out in a parallel pressure reactor, as generally described in U.S. Pat. Nos. 6,306,658; 6,455,316; 6,489,168; WO 00/09255; and Murphy, V. et al. (2003) “A Fully Integrated High-Throughput Screening Methodology for the Discovery of New Polyolefin Catalysts: Discovery of a New Class of High Temperature Single-Site Group (IV) Copolymerization Catalysts,” J. Am. Chem. Soc., v. 125, pp. 4306-4317, each of which is fully incorporated herein by reference. […] Although the specific quantities, temperatures, solvents, reactants, reactant ratios, pressures, and other variables are frequently changed from one polymerization run to the next, the following describes a typical polymerization performed in a parallel pressure reactor.
Catalyst systems dissolved in solution were used in the polymerization examples below, unless specified otherwise.
RUN A: Propylene Homopolymerization (PP).
The reactor was prepared as described above and purged with propylene. For the examples in Table 2, the catalyst and activator solutions were prepared in toluene. […] Isohexane was then injected into each vessel at room temperature followed by a predetermined amount of propylene gas. The reactor was heated to the set temperature while stirring at 800 rpm, and the scavenger, activator and catalyst solutions were injected sequentially to each vessel. The polymerization was allowed to proceed as described previously.
A series of propylene polymerizations were performed in parallel pressure reactors (PPRs) developed by Symyx Technologies, Inc. In these polymerizations, the metallocene rac-dimethylsilyl-bis(indenyl)hafnium dimethyl (MCN-1) was used along with several different ammonium borate activators. Polymerizations were performed at 85° C. and 100° C.
Propylene homopolymerization (PP).
A series of propylene polymerizations were performed in the parallel pressure reactor similar to the procedure described above. In these studies rac-dimethylsilyl-bis(indenyl)hafnium dimethyl (MCN-1) was used along with ammonium borate activators.

[5] = activator diluent MeCy (methylcyclohexane)

Row | Molecule | Solubility limit in MeCy (wt % at 25° C.) [1] [wt %] | Solubility limit in i-hexane (mM at 25° C.) [2] [mM] | Solubility limit in i-hexane (wt % at 25° C.) [2] [wt %] | Solubility limit in MeCy (mM at 25° C.) [2] [mM] | activity ([3]; activator diluent Toluene) | further results
1 | CCCCCCCCCCCCCCCCCC[NH+](CCCCCCCCCCCCCCCCCC)c1c(C)cc(C)cc1C.Fc1c(F)c(F)c2c(F)c([B-](c3c(F)c(F)c4c(F)c(F)c(F)c(F)c4c3F)(c3c(F)c(F)c4c(F)c(F)c(F)c(F)c4c3F)c3c(F)c(F)c4c(F)c(F)c(F)c(F)c4c3F)c(F)c(F)c2c1F [DOdMH-BF28, 2,4,6-trimethyl-N,N-dioctadecylbenzenaminium-BF28] | >42 | 7.6 | 0.70 | >180 | – | –
2 | N,N-dimethyl anilinium tetrakis(perfluorobiphenyl) [C3, reference compound] | – | – | – | – | 692.3 kg/mmol/h and 711.1 kg/mmol/h and 841.8 kg/mmol/h and 803.7 kg/mmol/h | quantity of polymer obtained with methylcyclohexane as diluent ([3]; Cat 1, activator in methylcyclohexane): insufficient for analysis
3 | CCCCCCCCCCCCCCCCCCc1ccc([NH+](C)CCCCCCCCCCCCCCCCCC)cc1.Fc1c(F)c(F)c2c(F)c([B-](c3c(F)c(F)c4c(F)c(F)c(F)c(F)c4c3F)(c3c(F)c(F)c4c(F)c(F)c(F)c(F)c4c3F)c3c(F)c(F)c4c(F)c(F)c(F)c(F)c4c3F)c(F)c(F)c2c1F [LCSA 2] | – | – | – | – | 477.7 kg/mmol/h and 430.3 kg/mmol/h and 405.6 kg/mmol/h and 423.2 kg/mmol/h | activity, molecular weight and co-monomer incorporation with methyl cyclohexane versus toluene as activator diluent ([3]; Cat 1): remain approximately the same; activity [3, 5]: 451.4 kg/mmol/h and 388.5 kg/mmol/h and 412.4 kg/mmol/h and 455.5 kg/mmol/h
4 | CCCCCCCCCCCCCCCCCC[NH+](C)c1ccc(CCCC)cc1.Fc1c(F)c(F)c2c(F)c([B-](c3c(F)c(F)c4c(F)c(F)c(F)c(F)c4c3F)(c3c(F)c(F)c4c(F)c(F)c(F)c(F)c4c3F)c3c(F)c(F)c4c(F)c(F)c(F)c(F)c4c3F)c(F)c(F)c2c1F [LCSA 1] | – | – | – | – | 413.4 kg/mmol/h and 510.6 kg/mmol/h and 426.4 kg/mmol/h and 452.7 kg/mmol/h | activity, molecular weight and co-monomer incorporation with methyl cyclohexane versus toluene as activator diluent ([3]; Cat 1): remain approximately the same; activity [3, 5]: 332.7 kg/mmol/h and 377.7 kg/mmol/h and 393.6 kg/mmol/h and 367.2 kg/mmol/h
5 | CCCCCCCCCCCCCCCCCCc1ccc([NH+](CCCCCCCCCCCCCCCCCC)CCCCCCCCCCCCCCCCCC)cc1.Fc1c(F)c(F)c2c(F)c([B-](c3c(F)c(F)c4c(F)c(F)c(F)c(F)c4c3F)(c3c(F)c(F)c4c(F)c(F)c(F)c(F)c4c3F)c3c(F)c(F)c4c(F)c(F)c(F)c(F)c4c3F)c(F)c(F)c2c1F [LCSA 3] | – | – | – | – | 290.6 kg/mmol/h and 278.0 kg/mmol/h and 289.7 kg/mmol/h and 278.3 kg/mmol/h | activity, molecular weight and co-monomer incorporation with methyl cyclohexane versus toluene as activator diluent ([3]; Cat 1): remain approximately the same; activity [3, 5]: 280.6 kg/mmol/h and 257.6 kg/mmol/h and 334.9 kg/mmol/h and 360.9 kg/mmol/h
6 | CCCCCCc1ccc([NH+](C)C)cc1.Fc1c(F)c(F)c([B-](c2c(F)c(F)c(F)c(F)c2F)(c2c(F)c(F)c(F)c(F)c2F)c2c(F)c(F)c(F)c(F)c2F)c(F)c1F [Hex-DMAH-BF20, 4-hexyl-N,N-dimethylanilinium-BF20] | – | – | – | – | – | activity ([4]; 85 °C, 135 psi): 150 kg/mmol/h and 163 kg/mmol/h and 192 kg/mmol/h; activity ([4]; 100 °C, 150 psi): 47 kg/mmol/h and 81 kg/mmol/h and 75 kg/mmol/h

The next lines start with results.

Row | Solubility limit in MeCy (wt % at 25° C.) [1] [wt %] | Solubility limit in i-hexane (mM at 25° C.) [2] [mM] | Solubility limit in i-hexane (wt % at 25° C.) [2] [wt %] | Solubility limit in MeCy (mM at 25° C.) [2] [mM] | Molecule | activity ([3]; activator diluent Toluene) | further results
7 | 1.1 | 0.8 | 0.10 | 7.9 | CCCCCCCCCCCCCCCCCCc1ccc([NH+](C)C)cc1.Fc1c(F)c(F)c([B-](c2c(F)c(F)c(F)c(F)c2F)(c2c(F)c(F)c(F)c(F)c2F)c2c(F)c(F)c(F)c(F)c2F)c(F)c1F [OdDMAH-BF20, N,N-dimethyl-4-octadecylbenzenaminium-BF20] | – | –
8 | 0.63 | 1.8 | 0.35 | 3.7 | CCCCCCCCCC[NH+](CCCCCCCCCC)c1ccc(C)cc1.Fc1c(F)c(F)c2c(F)c([B-](c3c(F)c(F)c4c(F)c(F)c(F)c(F)c4c3F)(c3c(F)c(F)c4c(F)c(F)c(F)c(F)c4c3F)c3c(F)c(F)c4c(F)c(F)c(F)c(F)c4c3F)c(F)c(F)c2c1F [DDTH-BF28, N,N-didecyl-4-methylanilinium-BF28] | – | –
9 | >40 | 3.0 | 0.73 | >190 | CCCCCCCCCCCCCCCCCC[NH+](CCCCCCCCCCCCCCCCCC)c1ccccc1C.Fc1c(F)c(F)c2c(F)c([B-](c3c(F)c(F)c4c(F)c(F)c(F)c(F)c4c3F)(c3c(F)c(F)c4c(F)c(F)c(F)c(F)c4c3F)c3c(F)c(F)c4c(F)c(F)c(F)c(F)c4c3F)c(F)c(F)c2c1F [DOdoTH-BF28, 2-methyl-N,N-dioctadecylbenzenaminium-BF28] | – | –
10 | 0.21 | 1.5 | 0.22 | 1.7 | CCCCCCCCCC[NH+](CCCCCCCCCC)c1ccc(C)cc1.Fc1c(F)c(F)c([B-](c2c(F)c(F)c(F)c(F)c2F)(c2c(F)c(F)c(F)c(F)c2F)c2c(F)c(F)c(F)c(F)c2F)c(F)c1F [DDTH-BF20, N,N-didecyl-4-methylanilinium-BF20] | – | –
11 | >40 | 2.9 | 1.9 | > 200 | CCCCCCCCCCCCCCCCCC[NH+](CCCCCCCCCCCCCCCCCC)c1ccccc1C(C)C.Fc1c(F)c(F)c2c(F)c([B-](c3c(F)c(F)c4c(F)c(F)c(F)c(F)c4c3F)(c3c(F)c(F)c4c(F)c(F)c(F)c(F)c4c3F)c3c(F)c(F)c4c(F)c(F)c(F)c(F)c4c3F)c(F)c(F)c2c1F [DOdPAH-BF28, 2-isopropyl-N,N-dioctadecylbenzenaminium-BF28] | – | –
